The numbers were not newly measured in patent publication US20130150323A1, “USE OF ORAL HEPARIN PREPARATIONS TO TREAT URINARY TRACT DISEASES AND CONDITIONS” (Urigen Pharmaceuticals, Inc, priority 2010, published 2013), which cites them from elsewhere.

For series [1], the system named is IC patients. The settings on record: intravesical instillations.
Series [2] relates to bladder mucus layer of normal human volunteers. As to conditions: intravesically administered; 0.4 M potassium solution.
Series [3] deals with IC patients. As to conditions: intravesical.
The test system of series [4] is interstitial cystitis patients. The settings on record: oral, double blind studies, 16% on placebo.
The conditions of series [5]: oral.

Where two headings read alike, the source gives them in different places.

Consider `C[S+](C)[O-]` [DMSO, dimethylsulfoxide], for which, in the series on IC patients [1], the “IC patients treated with benefit” value is reported as around 50%.

For the compound heparin, the “effect on protamine chemical injury of mucus layer (potassium absorption, urgency and pain)” value in series [2] is recorded as “reversed”. Besides, the “patients treated in whom effective” value with IC patients [3] was “approximately 50%”.

pentosanpolysulfate: the “good response, patients on active drug” value in series [4] is recorded as 34%. Besides, the “availability of this drug orally” value in series [5] is reported as 2-3%.

As for `O=S(=O)(O)CCS` [Mesnex, mesna], the “frequency of adverse events (all AEs)” value in the series with cancer patients (IV) was 85%; with cancer patients (oral) it was 89%.
